Test [1] concerns the target PI3Kδ (p110δ/p85α) Recombinant Human Protein (Homo sapiens (Human), UniProt O00329). Kind of test: PI3Kδ scintillation proximity assay. The test is classed as biochemical. The settings on record: 20 μM PIP2, 2 μM ATP, 3.4 nM PI3Kδ, 120 min, room temperature; read-out: PI3Kδ IC50. Put shortly:
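Recombinant human p110δ/p85α was run at room temperature in 20 mM MOPS pH 6.7, 10 mM MgCl2, 5 mM DTT, 0.03% CHAPS, 2% DMSO. Substrates were 20 µM PIP2 and 2 µM ATP with [γ-33P]ATP. Product was captured overnight on WGA SPA beads and counted by scintillation; IC50 fitted from percent of solvent control versus log concentration.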

In test [2] the test system is Phosphorylated Ribosomal Protein S6 (RPS6) in THP-1 cells. Kind of test: THP-1 RPS6 ELISA assay. Format: cell-based, Human. The note with it: Homo sapiens, THP-1, THP-1 cells, serum starved, 2 h compound, 10 nM MCP-1 for 15 min, phospho-RPS6 ELISA; read-out: PI3Kγ_THP1_RPS6_ELISA IC50. Put shortly:
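Serum-starved THP-1 cells (2×10^5/well, RPMI) preincubated with compound 2 h at 37° C, then stimulated with 10 nM MCP-1 for 15 min. Lysates assayed by phospho-RPS6 ELISA, absorbance 450 nm (540 nm correction); IC50 from percent inhibition versus log concentration.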
Background: In an ELISA, binding on a coated surface is turned into a signal by an enzyme label.

For test [3], the target named is PI3Kγ (p110γ) Recombinant Human Protein (Homo sapiens (Human), UniProt P48736). Description: PI3K-γ scintillation proximity assay. Format: biochemical. The settings on record: 20 μM PIP2, 2 μM ATP, 13 nM PI3Kγ, 120 min, room temperature. Put shortly:
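Radiometric SPA in 20 mM MOPS pH 6.7, 10 mM MgCl2, 5 mM DTT, 0.03% CHAPS, 2% DMSO. Stopped with EDTA and WGA SPA beads for scintillation counting. IC50 fitted from % solvent-control activity versus log concentration.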
In general terms: Scintillation proximity formats need no separation of bound from free tracer.

Structures can show the parent of a compound that is named as a salt.

PI3Kδ (p110δ/p85α) Recombinant Human Protein, sequence (O00329 whole entry): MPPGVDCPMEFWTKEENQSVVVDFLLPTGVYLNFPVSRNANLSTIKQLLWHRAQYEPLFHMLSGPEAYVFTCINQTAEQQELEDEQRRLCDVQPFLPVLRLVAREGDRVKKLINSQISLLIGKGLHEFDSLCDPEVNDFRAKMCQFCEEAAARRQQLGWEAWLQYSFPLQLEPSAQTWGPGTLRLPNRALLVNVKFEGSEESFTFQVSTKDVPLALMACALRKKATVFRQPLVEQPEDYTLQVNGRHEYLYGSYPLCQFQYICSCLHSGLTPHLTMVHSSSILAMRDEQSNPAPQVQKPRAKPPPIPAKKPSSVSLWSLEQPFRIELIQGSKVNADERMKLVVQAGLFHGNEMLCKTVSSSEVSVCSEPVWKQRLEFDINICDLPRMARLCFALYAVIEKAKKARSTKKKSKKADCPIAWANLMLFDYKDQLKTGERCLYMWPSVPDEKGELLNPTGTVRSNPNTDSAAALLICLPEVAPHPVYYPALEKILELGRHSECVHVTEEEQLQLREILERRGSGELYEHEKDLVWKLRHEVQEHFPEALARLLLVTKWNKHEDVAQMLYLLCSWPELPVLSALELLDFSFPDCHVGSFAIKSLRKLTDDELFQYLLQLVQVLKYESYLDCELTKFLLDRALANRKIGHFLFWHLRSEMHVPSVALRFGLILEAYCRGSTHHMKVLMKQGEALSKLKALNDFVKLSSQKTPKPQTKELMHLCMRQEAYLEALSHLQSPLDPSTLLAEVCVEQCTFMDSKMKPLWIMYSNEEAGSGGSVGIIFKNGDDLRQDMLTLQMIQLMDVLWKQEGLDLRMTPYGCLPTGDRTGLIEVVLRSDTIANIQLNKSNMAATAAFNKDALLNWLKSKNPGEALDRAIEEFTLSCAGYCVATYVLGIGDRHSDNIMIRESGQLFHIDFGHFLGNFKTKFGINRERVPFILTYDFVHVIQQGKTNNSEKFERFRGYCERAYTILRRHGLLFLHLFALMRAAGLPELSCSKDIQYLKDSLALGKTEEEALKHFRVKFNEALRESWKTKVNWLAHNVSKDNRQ
PI3Kδ (p110δ/p85α) Recombinant Human Protein, sequence (P27986 whole entry partner): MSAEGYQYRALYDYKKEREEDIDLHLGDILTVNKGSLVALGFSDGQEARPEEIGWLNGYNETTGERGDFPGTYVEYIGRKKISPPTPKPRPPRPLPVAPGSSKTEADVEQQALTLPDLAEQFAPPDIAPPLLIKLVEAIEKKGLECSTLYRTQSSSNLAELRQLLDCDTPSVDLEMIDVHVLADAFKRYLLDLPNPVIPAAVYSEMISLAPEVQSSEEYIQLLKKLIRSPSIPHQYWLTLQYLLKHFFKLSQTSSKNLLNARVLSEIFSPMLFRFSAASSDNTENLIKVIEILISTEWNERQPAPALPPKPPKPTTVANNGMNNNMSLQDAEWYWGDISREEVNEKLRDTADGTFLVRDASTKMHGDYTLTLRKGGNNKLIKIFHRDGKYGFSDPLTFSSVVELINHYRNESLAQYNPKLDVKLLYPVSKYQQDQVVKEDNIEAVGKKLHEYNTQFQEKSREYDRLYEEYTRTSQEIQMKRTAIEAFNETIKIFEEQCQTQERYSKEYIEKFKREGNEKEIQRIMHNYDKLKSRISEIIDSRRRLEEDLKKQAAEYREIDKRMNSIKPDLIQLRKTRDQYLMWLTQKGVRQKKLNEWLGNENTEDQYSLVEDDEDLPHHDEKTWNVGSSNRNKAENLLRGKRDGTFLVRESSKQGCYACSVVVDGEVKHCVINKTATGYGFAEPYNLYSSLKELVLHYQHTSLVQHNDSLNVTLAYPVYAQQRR
PI3Kγ (p110γ) Recombinant Human Protein, sequence (P48736 whole entry): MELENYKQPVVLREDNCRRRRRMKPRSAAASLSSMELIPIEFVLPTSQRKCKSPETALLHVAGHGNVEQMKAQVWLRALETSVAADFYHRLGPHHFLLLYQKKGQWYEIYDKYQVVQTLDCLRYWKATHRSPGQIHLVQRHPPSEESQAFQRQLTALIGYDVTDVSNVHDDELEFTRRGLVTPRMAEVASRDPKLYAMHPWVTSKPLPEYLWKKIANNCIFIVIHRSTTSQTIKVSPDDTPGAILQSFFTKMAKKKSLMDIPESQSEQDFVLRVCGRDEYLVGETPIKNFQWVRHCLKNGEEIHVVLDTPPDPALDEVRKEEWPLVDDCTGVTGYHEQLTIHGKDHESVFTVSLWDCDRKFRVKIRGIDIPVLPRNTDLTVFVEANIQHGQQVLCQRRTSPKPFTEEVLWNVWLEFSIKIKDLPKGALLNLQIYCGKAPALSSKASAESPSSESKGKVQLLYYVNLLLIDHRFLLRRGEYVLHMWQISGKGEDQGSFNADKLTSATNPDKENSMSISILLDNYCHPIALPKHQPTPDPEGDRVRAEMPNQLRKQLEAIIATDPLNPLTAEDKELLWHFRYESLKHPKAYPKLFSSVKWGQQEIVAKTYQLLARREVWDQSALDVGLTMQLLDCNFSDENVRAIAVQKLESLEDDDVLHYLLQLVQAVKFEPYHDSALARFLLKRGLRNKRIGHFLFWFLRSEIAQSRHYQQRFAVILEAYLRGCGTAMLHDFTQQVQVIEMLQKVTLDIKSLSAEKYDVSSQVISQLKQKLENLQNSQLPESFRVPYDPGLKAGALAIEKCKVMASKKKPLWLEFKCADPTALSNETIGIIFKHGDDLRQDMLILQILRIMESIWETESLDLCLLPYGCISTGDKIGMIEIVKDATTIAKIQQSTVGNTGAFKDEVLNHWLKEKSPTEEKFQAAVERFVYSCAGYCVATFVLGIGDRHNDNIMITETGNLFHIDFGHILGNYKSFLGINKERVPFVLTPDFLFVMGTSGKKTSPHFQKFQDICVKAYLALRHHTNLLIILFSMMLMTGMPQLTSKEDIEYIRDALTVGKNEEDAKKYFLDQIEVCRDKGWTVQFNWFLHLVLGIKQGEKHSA

Broadly, the IC50 is the concentration at which inhibition is half-maximal. Turning to `Cc1ccc(C(C)(O)C(F)F)cc1-c1cnc2c(N)nc(-c3ccn(C)n3)cn12` (stereo not drawn) [Example 43, 2-(3-(8-Amino-6-(1-methyl-1H-pyrazol-3-yl)imidazo[1,2-a]pyrazin-3-yl)-4-methylphenyl)-1,1-difluoropropan-2-ol], the half-inhibitory concentration (IC50) was 100 to 500 nM in test [1], 500 to 1000 nM in test [2] and below 100 nM in test [3].

For `Cc1ccc(C(C)(O)C(F)F)cc1-c1cnc2c(N)nc(-c3ccc(CO)nc3)cn12` (stereo not drawn) [Example 46, 2-(3-(8-Amino-6-(6-(hydroxymethyl)pyridin-3-yl)imidazo[1,2-a]pyrazin-3-yl)-4-methylphenyl)-1,1-difluoropropan-2-ol trifluoroacetate], the concentration for half-maximal inhibition (IC50) in test [1] was 100 to 500 nM; in test [2] it was below 100 nM; in test [3] it was below 100 nM.

As to `Cc1cc(-c2cn3c(-c4cc(C(C)(O)C(F)F)ccc4C)cnc3c(N)n2)on1` (stereo not drawn) [Example 48, 2-(3-(8-Amino-6-(3-methylisoxazol-5-yl)imidazo[1,2-a]pyrazin-3-yl)-4-methylphenyl)-1,1-difluoropropan-2-ol trifluoroacetate], the results for the IC50 in test [1], in test [2] and in test [3] were 100 to 500 nM, 100 to 500 nM and below 100 nM, respectively.

With `Cc1ccc(C(C)(O)C(F)F)cc1-c1cnc2c(N)nc(-n3cncn3)cn12` (stereo not drawn) [Example 49, 2-(3-(8-Amino-6-(1H-1,2,4-triazol-1-yl)imidazo[1,2-a]pyrazin-3-yl)-4-methylphenyl)-1,1-difluoropropan-2-ol], the IC50 was 100 to 500 nM in test [1], 100 to 500 nM in test [2] and below 100 nM in test [3].

For the compound `CCC(O)(c1ccc(C)c(-c2cnc3c(N)nc(-c4ccnn4C)cn23)c1)C(F)F` (stereo not drawn) [Example 50, 2-(3-(8-Amino-6-(1-methyl-1H-pyrazol-5-yl)imidazo[1,2-a]pyrazin-3-yl)-4-methylphenyl)-1,1-difluorobutan-2-ol trifluoroacetate], the IC50 in test [1] is 100 to 500 nM; in test [2] it was 100 to 500 nM; in test [3] it was below 100 nM.

With `Cc1ccc(C2(O)CCCC2F)cc1-c1cnc2c(N)nc(C(F)(F)F)cn12` (stereo not drawn) [Example 61, 1-(3-(8-Amino-6-(trifluoromethyl)imidazo[1,2-a]pyrazin-3-yl)-4-methylphenyl)-2-fluorocyclopentan-1-ol trifluoroacetate salt], the IC50 in test [1] is 100 to 500 nM; in test [2], 100 to 500 nM; in test [3] it was below 100 nM.

As to `CNC(=O)C1CC1c1cn2c(-c3cc(C(C)(O)C(F)F)ccc3C)cnc2c(N)n1` (stereo not drawn) [Example 76, 2-(8-Amino-3-(5-(1,1-difluoro-2-hydroxypropan-2-yl)-2-methylphenyl)imidazo[1,2-a]pyrazin-6-yl)-N-methylcyclopropane-1-carboxamide], the values for the IC50 in test [1], in test [2] and in test [3] were 100 to 500 nM, 100 to 500 nM and below 100 nM, respectively.

On to `Cc1ccc(C(C)(O)C(F)F)cc1-c1cnc2c(N)nc(C3CC3C(=O)NC(C)(C)CO)cn12` (stereo not drawn) [Example 78, 2-(8-Amino-3-(5-(1,1-difluoro-2-hydroxypropan-2-yl)-2-methylphenyl)imidazo[1,2-a]pyrazin-6-yl)-N-(1-hydroxy-2-methylpropan-2-yl)cyclopropane-1-carboxamide], for which the IC50 was 100 to 500 nM in test [1], 100 to 500 nM in test [2] and below 100 nM in test [3].

For the compound `[2H]C([2H])([2H])c1ccc(C(C)(O)C(F)(F)F)cc1-c1cnc2c(N)nc(C(=O)NCC(C)(C)O)cn12` (stereo not drawn) [Example 81, 8-Amino-N-(2-hydroxy-2-methylpropyl)-3-(2-(methyl-d3)-5-(1,1,1-trifluoro-2-hydroxypropan-2-yl)phenyl)imidazo[1,2-a]pyrazine-6-carboxamide], the IC50 was below 100 nM in test [1], 100 to 500 nM in test [2] and below 100 nM in test [3].

Regarding `Cc1ccc(C(O)(C(N)=O)C(F)(F)F)cc1-c1cnc2c(N)nc(C(F)(F)F)cn12` (stereo not drawn) [Example 82, 2-(3-(8-Amino-6-(trifluoromethyl)imidazo[1,2-a]pyrazin-3-yl)-4-methylphenyl)-3,3,3-trifluoro-2-hydroxypropanamide], the IC50 in test [1], in test [2] and in test [3] was below 100 nM throughout.

Consider `Cc1ccc(C(O)(C(N)=O)C(F)(F)F)cc1-c1cnc2c(N)nc(C(=O)NC3(C4CC4)CCOC3)cn12` (stereo not drawn) [Example 83, 8-Amino-3-(5-(3-amino-1,1,1-trifluoro-2-hydroxy-3-oxopropan-2-yl)-2-methylphenyl)-N-(3-cyclopropyltetrahydrofuran-3-yl)imidazo[1,2-a]pyrazine-6-carboxamide trifluoroacetate salt], for which the IC50 was 100 to 500 nM in test [1], below 100 nM in test [2] and below 100 nM in test [3].

On to `Cc1ccc(C(O)(C(N)=O)C(F)(F)F)cc1-c1cnc2c(N)nc(C(=O)NC3(C)CCOC3C)cn12` (stereo not drawn) [Example 84, 8-Amino-3-(5-(3-amino-1,1,1-trifluoro-2-hydroxy-3-oxopropan-2-yl)-2-methylphenyl)-N-(2,3-dimethyltetrahydrofuran-3-yl)imidazo[1,2-a]pyrazine-6-carboxamide, trifluoroacetate], for which the IC50 in test [1] was 100 to 500 nM; in test [2], 100 to 500 nM; in test [3], below 100 nM.

On to `Cc1ccc(C(O)(C(N)=O)C(F)(F)F)cc1-c1cnc2c(N)nc(C(=O)NC3(C(F)(F)F)CCOCC3)cn12` (stereo not drawn) [Example 85, 8-Amino-3-(5-(3-amino-1,1,1-trifluoro-2-hydroxy-3-oxopropan-2-yl)-2-methylphenyl)-N-(4-(trifluoromethyl)tetrahydro-2H-pyran-4-yl)imidazo[1,2-a]pyrazine-6-carboxamide, trifluoroacetate], for which the IC50 in test [1] is 500 to 2000 nM; in test [2] it was 100 to 500 nM; in test [3], below 100 nM.

Turning to `[2H]C([2H])([2H])c1ccc(C(C)(O)C(F)(F)F)cc1-c1cnc2c(N)nc(-c3cnn(C(CC#N)C4CCC4)c3)cn12` (stereo not drawn) [Example 86, 3-(4-(8-Amino-3-(2-(methyl-d3)-5-(1,1,1-trifluoro-2-hydroxypropan-2-yl)phenyl)imidazo[1,2-a]pyrazin-6-yl)-1H-pyrazol-1-yl)-3-cyclobutylpropanenitrile, trifluoroacetate], the IC50 is 100 to 500 nM in test [1], 100 to 500 nM in test [2] and below 100 nM in test [3].

`[2H]C([2H])([2H])c1ccc(C(C)(O)C(F)(F)F)cc1-c1cnc2c(N)nc(-c3cnn4c3CCC4)cn12` (stereo not drawn) [Example 87, 2-(3-(8-Amino-6-(5,6-dihydro-4H-pyrrolo[1,2-b]pyrazol-3-yl)imidazo[1,2-a]pyrazin-3-yl)-4-(methyl-d3)phenyl)-1,1,1-trifluoropropan-2-ol, trifluoroacetate]: the IC50 in test [1] was below 100 nM; in test [2], 100 to 500 nM; in test [3], below 100 nM.

Take `[2H]C([2H])([2H])c1ccc(C(C)(O)C(F)(F)F)cc1-c1cnc2c(N)nc(-c3cnn(C4(CC#N)CC(C(=O)OC)C4)c3)cn12` (stereo not drawn) [Example 88, Methyl 3-(4-(8-amino-3-(2-(methyl-d3)-5-(1,1,1-trifluoro-2-hydroxypropan-2-yl)phenyl)imidazo[1,2-a]pyrazin-6-yl)-1H-pyrazol-1-yl)-3-(cyanomethyl)cyclobutane-1-carboxylate, trifluoroacetate]: the IC50 is 100 to 500 nM in test [1], 100 to 500 nM in test [2] and below 100 nM in test [3].

On to `Cc1ccc(C(O)(C(N)=O)C(F)F)cc1-c1cnc2c(N)nc(C(F)(F)F)cn12` (stereo not drawn) [Example 89, 2-(3-(8-Amino-6-(trifluoromethyl)imidazo[1,2-a]pyrazin-3-yl)-4-methylphenyl)-3,3-difluoro-2-hydroxypropanamide], for which the IC50 in test [1], in test [2] and in test [3] was below 100 nM each time.

`Cc1ccc(C(C)(O)C(F)F)cc1-c1cnc2c(N)nc(-c3cnn(C4(CC#N)CN(C(=O)C5CCC5)C4)c3)cn12` (stereo not drawn) [Example 100, 2-(3-(4-(8-amino-3-(5-(1,1-difluoro-2-hydroxypropan-2-yl)-2-methylphenyl)imidazo[1,2-a]pyrazin-6-yl)-1H-pyrazol-1-yl)-1-(cyclobutanecarbonyl)azetidin-3-yl)acetonitrile]: the IC50 in test [1] is 100 to 500 nM; in test [2] it was 100 to 500 nM; in test [3], below 100 nM.

In the case of `Cc1ccc(C(C)(O)C(F)F)cc1-c1cnc2c(N)nc(-c3cncc(S(C)(=O)=O)c3)cn12` (stereo not drawn) [Example 106, 2-(3-(8-Amino-6-(5-(methylsulfonyl)pyridin-3-yl)imidazo[1,2-a]pyrazin-3-yl)-4-methylphenyl)-1,1-difluoropropan-2-ol], the IC50 was 100 to 500 nM in test [1], 100 to 500 nM in test [2] and below 100 nM in test [3].

`Cc1ccc(C(C)(O)C(F)F)cc1-c1cnc2c(N)nc(-c3ccc(B(O)O)cc3)cn12` (stereo not drawn) [Example 108, (4-(8-amino-3-(5-(1,1-difluoro-2-hydroxypropan-2-yl)-2-methylphenyl)imidazo[1,2-a]pyrazin-6-yl)phenyl)boronic acid trifluoroacetate salt]: the IC50 in test [1], in test [2] and in test [3] was below 100 nM each time.

Source of the values: US10738057B2, “Tertiary alcohols as PI3K-γ inhibitors” (Incyte Corporation, priority 2017, dated 2020).
